Laboratory results reported in paper PMC6161432 (The Journal of Venomous Animals and Toxins Including …, 2018).
“Also recorded” adds a separate entry of the source. Read-outs that look alike come from different tables or passages of the source.

What was measured:
[1] = tested on: Leishmania (L.) infantum promastigotes; assay: Activity against L. (L.) infantum promastigotes (MTT viability assay); format: cell-based; conditions: 48 h at 24 °C, NA = not active, maximum tested concentration 100 μM; for EC50: read-out: EC50 Leishmania (L.) infantum Promastigote (95% CI)
Description: (§1) Isolated promastigotes of Leishmania (L.) infantum (MHOM/BR/1972/LD) were maintained in M-199 medium supplemented with 10% calf serum and 0.25% hemin at 24 °C. The L. (L.) infantum (MHOM/BR/1972/LD) was maintained in hamsters (Mesocricetus auratus). Amastigotes were harvested from spleens of infected hamsters. The animals were infected with 10^8 amastigotes (300 μL) by the i.p. route. At 60 days post-infection, the animals were euthanized, and the spleens analyzed by light microscopy using Giemsa-stained smears. The parasite load was expressed in Leishman-Donovan units (i.e., the number of amastigotes per 1000 nucleated cells x organ weight [in g] × 2 × 10^5). Briefly, the spleen was macerated in a tissue grinder tube containing 5 mL of phosphate-buffered saline (PBS), whereas the amastigotes were separated by differential centrifugation to obtain a suspension of parasites. The first centrifugation of the spleen suspension (0.8 rpm) was employed to separate the red and white cells (pellet) from the amastigote forms (supernatant). Next, a second centrifugation of the supernatant from the previous step (2.8 rpm) was performed to concentrate the amastigote forms.
Promastigotes were counted in a Neubauer hemocytometer and seeded at 1 × 10^6/well to obtain a final volume of 150 μL. Controls with DMSO and without drugs were also performed. Miltefosine was dissolved in H2O at 30 mg/mL and used as a standard drug. […] Each point was tested in duplicate. The plate was incubated for 48 h at 24 °C and the viability of promastigotes was verified by morphology in light microscopy and by the MTT assay. Briefly, MTT ([…]) was dissolved in PBS, sterilized through 0.22 μm membranes and added (20 μL/well) for 4 h at 24 °C. Promastigotes were incubated without compounds and used as viability control. Formazan extraction was performed using 10% SDS for 18 h (80 μL/well) at 24 °C and the optical density (OD) was determined in a Multiskan MS (UNISCIENCE) at 550 nm. One hundred percent (100%) viability was expressed based on the OD of control promastigotes, after normalization.
(§2) The obtained data represent the mean and standard deviation of duplicate samples from two independent assays. EC50 values were calculated using sigmoid dose–response curves in the software GraphPad Prism 5.0; the 95% confidence intervals are included in parentheses. The Mann–Whitney test was used for the significance test (P value).

[2] = tested on: Leishmania (L.) infantum intracellular amastigotes; assay: Activity against L. (L.) infantum intracellular amastigotes in mouse peritoneal macrophages (Giemsa counting, parasitic index); format: cell-based; conditions: for EC50: read-out: EC50 Leishmania (L.) infantum Amastigote (95% CI)
Description: as §1
Peritoneal macrophages were collected from the peritoneal cavity of female BALB/c mice by washing with RPMI-1640 without phenol red, supplemented with 10% fetal bovine serum.
Amastigotes were isolated from spleens of previously infected hamsters, and separated by differential centrifugation. The tissue sample was macerated to break the cell membranes to release all cell contents including the amastigotes. Then the lysate was subjected to two repeated centrifugations (0.8 rpm followed 2.8 rpm) where density separation causes a sediment. The supernatant and the pellet were recovered via the first and second centrifugation, respectively. […] Non-internalized parasites were removed by washing once with medium, whereas tested compounds were incubated with infected macrophages for 96 h. Miltefosine was also used as a standard control drug. Subsequently, the cells were fixed with MeOH, stained with Giemsa and observed through a light microscope. The parasite burden was determined by the ratio of infected macrophages versus the mean number of amastigotes per macrophage out of 500 macrophages, i.e., the parasitic index (PI). […] Each point was tested in duplicate.
as §2

[3] = Cytotoxicity against mammalian cells (MTT assay); conditions: mouse
NCTC clone L-929 cells = assay: Cytotoxicity against mammalian cells (MTT assay); conditions: CC50 against mammalian cells / EC50 against amastigotes
[4] = Peritoneal macrophage, 96 h, intracellular amastigotes in BALB/c peritoneal macrophages, 96 h incubation, NA = not active, maximum tested concentration 100 μM
[5] = intracellular amastigotes in BALB/c peritoneal macrophages, 96 h incubation, NA = not active, maximum tested concentration 100 μM

Row | EC50 [2, 4] | EC50 [2, 5] | SMILES | EC50 ([1]; 48 h) | CC50 at 48 h ([3]; NCTC clone L-929 cells) | SI Amastigote (selectivity index) (NCTC clone L-929 cells) | EC50 Leishmania (L.) infantum Promastigote (95% CI) [1] | EC50 Leishmania (L.) infantum Amastigote (95% CI) [2, 5] | EC50 [1] | EC50 Leishmania (L.) infantum Amastigote (95% CI) ([2]; 96 h, 100 µM) | CC50 at 48 h [3]
1 | 67.7 µM | – | C=CCc1ccc(Oc2cc([C@H](O)C=C)cc(OC)c2OC)c(OC)c1 [Compound 4, 1-[(7R)-hydroxy-8-propenyl]-3-[3′-methoxy-1′-(8′-propenyl)-phenoxy]-4,5-dimethoxybenzene] | 65.4 µM | > 200 µM | > 2.9 | – | – | – | – | –
2 | – | – | C=CCc1cc(OC)c(O)c(-c2cc(CC=C)cc(OC)c2O)c1 [Compound 5] | – | 58.1 µM | – | no activity | inactive | – | – | –
3 | 16.4 µM | 16.9 µM | CCCCCCCCCCCCCCCCOP(=O)([O-])OCC[N+](C)(C)C [miltefosine, reference compound] | 16.9 µM | 122 µM | 7.2 | – | – | 16.4 µM | – | –
4 | – | – | C=CCc1ccc(Oc2cc([C@H](O)C=C)cc(OC)c2O)c(OC)c1 [Compound 3, 1-[(7R)-hydroxy-8-propenyl]-3-[3′-methoxy-1′-(8′-propenyl)-phenoxy]-4-hydroxy-5-methoxybenzene] | – | > 200 µM | – | no activity | inactive | – | – | –
5 | – | – | C=CCc1ccc(O)c(OC)c1 [eugenol, reference compound] | – | > 200 µM | – | no activity | did not display activity; also recorded: no activity | – | – | –
6 | – | – | C=CCc1ccc(OC)c(OC)c1 [methyleugenol] | – | – | – | – | did not display activity | – | no activity | > 200 µM

Row | SMILES | EC50 [2, 4] | EC50 [2, 5] | EC50 ([1]; 48 h) | CC50 at 48 h ([3]; NCTC clone L-929 cells) | SI Amastigote (selectivity index) (NCTC clone L-929 cells) | EC50 Leishmania (L.) infantum Promastigote (95% CI) [1] | EC50 Leishmania (L.) infantum Amastigote (95% CI) [2, 5] | EC50 [1] | EC50 Leishmania (L.) infantum Amastigote (95% CI) ([2]; 96 h, 100 µM) | CC50 at 48 h [3]
7 | C=CCc1cc(OC)c(OC)c(-c2cc(CC=C)cc(OC)c2OC)c1 [Compound 6, dehydrodieugenol dimethyl ether] | 13.7 µM | – | 88.8 µM | > 200 µM | > 14.6 | – | – | – | – | –
